These results are taken from patent publication US20230219995A1, “FLUORESCENT CYTOSINE ANALOGUES AND THEIR APPLICATION IN TRANSCRIPTION AND TRANSLATION” (STEALTH LABELS BIOTECH AB, priority 2020, published 2023).

Data set [1] in a line: Steady state absorption, emission and fluorescence quantum yield of tC^O-modified RNA transcripts. The data set is classed as physicochemical. Particulars: free triphosphate. How it is done:
A spectroscopic approach was used to quantify the incorporation efficiency of tC^O TP, compared to the canonical CTP. To enable this, all RNA transcripts were purified using a Monarch RNA Cleanup kit, ensuring complete removal of unreacted tC^O TP.
The tC^O-RNA products from the cell-free transcription reactions (prior to polyadenylation and capping, see Methods: Bio for details) were measured as received, i.e. in RNAse free Milli Q water. All measurements were carried out at room temperature (ca. 22° C.) in a 3.0 mm path length quartz cuvette, with a sample volume of ca. 60 μL.
Absorption spectra were recorded on a Cary 5000 (Varian Technologies) spectrophotometer with a wavelength interval of 1.0 nm, integration time of 0.1 s, and a spectral band width (SBW) of 1 nm. All spectra were baseline corrected by subtracting the corresponding absorption from the solvent only. A second-order polynomial Savitzky-Golay (five points) smoothing filter was applied to all spectra. […]
Emission spectra were recorded on a SPEX Fluorolog (Jobin Yvon Horiba) fluorimeter with excitation at 356 nm. […]
Sample fluorescence quantum yields (ΦF) were determined relative to a solution of quinine sulphate (Sigma) in 0.5 M H2SO4 (ΦF,REF=0.546) and calculated according to equation S2. […]

The target in the next data set is T1, SP6 RNA polymerase (Enterobacteria phage SP6, UniProt P06221).
T1 construct: purchased Thermo Scientific
T1 sequence (P06221 1-874): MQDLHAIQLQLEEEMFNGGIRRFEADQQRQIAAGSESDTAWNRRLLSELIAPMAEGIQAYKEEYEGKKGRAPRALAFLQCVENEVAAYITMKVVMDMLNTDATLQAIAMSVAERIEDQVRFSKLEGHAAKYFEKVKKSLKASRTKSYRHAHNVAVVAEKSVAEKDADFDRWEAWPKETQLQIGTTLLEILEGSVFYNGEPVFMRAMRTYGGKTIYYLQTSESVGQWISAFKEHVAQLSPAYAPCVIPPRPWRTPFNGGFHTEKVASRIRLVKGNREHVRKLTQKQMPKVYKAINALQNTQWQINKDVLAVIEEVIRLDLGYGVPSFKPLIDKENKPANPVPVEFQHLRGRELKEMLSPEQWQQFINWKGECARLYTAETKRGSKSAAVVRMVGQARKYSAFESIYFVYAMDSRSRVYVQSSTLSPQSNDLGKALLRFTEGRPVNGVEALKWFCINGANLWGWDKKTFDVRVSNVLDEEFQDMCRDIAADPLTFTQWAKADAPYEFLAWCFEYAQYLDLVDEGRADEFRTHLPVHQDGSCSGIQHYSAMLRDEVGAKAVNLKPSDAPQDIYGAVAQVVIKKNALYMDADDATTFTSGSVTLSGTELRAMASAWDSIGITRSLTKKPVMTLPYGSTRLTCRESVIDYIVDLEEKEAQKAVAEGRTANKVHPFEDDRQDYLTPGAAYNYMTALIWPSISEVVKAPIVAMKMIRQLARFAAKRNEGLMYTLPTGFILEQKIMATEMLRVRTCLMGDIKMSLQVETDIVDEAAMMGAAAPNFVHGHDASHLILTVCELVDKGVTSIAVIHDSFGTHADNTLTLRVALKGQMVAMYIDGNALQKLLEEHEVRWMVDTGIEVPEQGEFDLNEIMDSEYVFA
The experiment in a line: Cell-free in vitro transcription with SP6 RNA polymerase (tC^O TP/CTP ratios 0-100%). The data set is classed as biochemical, bacteriophage. Particulars: tC^O TP/canonical CTP ratios 0 to 100%, agarose bleach gel.

A further data set addresses T2, T7 RNA polymerase (Escherichia phage T7, UniProt P00573).
T2 construct: purchased Thermo Scientific
In words: Cell-free in vitro transcription with T7 RNA polymerase (tC^O TP/CTP ratios 0-100%). The data set is classed as biochemical, bacteriophage.

T2 sequence (P00573 whole entry): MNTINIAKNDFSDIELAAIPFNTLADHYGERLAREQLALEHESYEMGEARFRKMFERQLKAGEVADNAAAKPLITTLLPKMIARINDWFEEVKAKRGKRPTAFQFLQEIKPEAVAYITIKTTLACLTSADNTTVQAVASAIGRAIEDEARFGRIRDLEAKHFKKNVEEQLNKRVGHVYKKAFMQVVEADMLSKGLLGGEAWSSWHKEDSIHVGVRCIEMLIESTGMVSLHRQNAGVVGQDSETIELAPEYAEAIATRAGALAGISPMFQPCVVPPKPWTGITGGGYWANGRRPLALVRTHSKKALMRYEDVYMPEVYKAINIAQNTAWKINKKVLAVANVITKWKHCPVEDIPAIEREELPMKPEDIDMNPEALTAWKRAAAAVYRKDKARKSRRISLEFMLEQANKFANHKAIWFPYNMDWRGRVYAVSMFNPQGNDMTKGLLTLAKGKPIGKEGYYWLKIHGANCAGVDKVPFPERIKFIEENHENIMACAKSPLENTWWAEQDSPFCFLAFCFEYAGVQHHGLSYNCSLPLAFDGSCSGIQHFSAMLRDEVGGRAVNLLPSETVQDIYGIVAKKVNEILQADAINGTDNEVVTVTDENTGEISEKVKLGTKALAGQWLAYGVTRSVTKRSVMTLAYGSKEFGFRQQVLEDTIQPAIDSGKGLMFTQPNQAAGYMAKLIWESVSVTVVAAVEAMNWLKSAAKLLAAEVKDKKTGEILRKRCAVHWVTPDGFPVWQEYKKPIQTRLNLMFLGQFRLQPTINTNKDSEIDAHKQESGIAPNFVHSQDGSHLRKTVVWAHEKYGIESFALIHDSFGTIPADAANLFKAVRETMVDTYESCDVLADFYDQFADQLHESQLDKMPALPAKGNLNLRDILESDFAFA

As to “((2R,3S,4R,5R)-3,4-dihydroxy-5-(2-oxo-2,10-dihydro-3H-benzo[b]pyrimido[4,5-e][1,4]oxazin-3-yl)tetrahydrofuran-2-yl)methyl triphosphate [tC^O TP]”, the “tC^O-band absorption λmax” value in data set [1] came out at 360 nm. Also, the “transcription and tC^O incorporation into full-length H2B:GFP mRNA” value is “Efficient transcription and tC^O incorporation” at SP6 RNA polymerase; “Efficient transcription and tC^O incorporation” at T7 RNA polymerase (tC^O TP/canonical CTP ratios 0 to 100%, agarose bleach gel). For the same substance, at T7 RNA polymerase (calculated from absorption at 260 nm and 370 nm of purified transcripts), the “kC/ktC^O, ratio of first-order rate constants for incorporation of CTP vs. tC^O TP” value is listed as 0.96-1.4.
